Laboratory results reported in patent US8962681B2, “Use of aminoacetonitrile derivatives against endoparasites” (Zoetis LLC, priority 2011, dated 2015).
Like-named read-outs stand apart in the source and are kept apart here.

Key:
[1] = system: Dirofilaria immitis microfilariae; assay: in vitro microwell motility assay against heartworm microfilariae; assay type: cell-based; conditions: microfilaria from canine blood, 384 well plate, 72 hours incubation at 37° C. and 5% CO2, LemnaTec Scanalyzer
[2] = system: L4 stage larvae of D. immitis; assay: L4 stage larvae motility/kill assay; assay type: cell-based, Dirofilaria immitis
[3] = screened at 10 μM in duplicate, 96-well plate, motility observed at 4, 24, 48 and 72 hours, endpoint defined as ED80 (80% of larvae killed)

Structure (SMILES) | ED50 (dose at which the overall microfilaria motility was reduced by 50% compared to that of an untreated control) [1] | active against L4 D. immitis at 10 μM [2, 3] | active against L4 D. immitis at 10 μM [2]
CC(C#N)(COc1cc(C#N)ccc1Oc1ccccc1)NC(=O)c1ccc(S(F)(F)(F)(F)F)cc1 (stereo not drawn) [test compound 60, N-[1-cyano-2-(5-cyano-2-phenoxyphenoxy)-1-methylethyl]-4-(pentafluorothio)benzamide] | 3.3 µM | active | 
CC(C#N)(COc1ccc(-c2ccncc2)cc1C(F)(F)F)NC(=O)c1ccc(S(F)(F)(F)(F)F)cc1 (stereo not drawn) [test compound 81, N-{1-cyano-1-methyl-2-[4-pyridin-4-yl-2-(trifluoromethyl)phenoxy]ethyl}-4-(pentafluorothio)benzamide] | 3.3 µM | active | 
CC(C#N)(COc1cc(C#N)ccc1C(F)(F)F)NC(=O)c1ccc(S(F)(F)(F)(F)F)cc1 (stereo not drawn) [test compound 1, N-{1-cyano-2-[5-cyano-2-(trifluoromethyl)phenoxy]-1-methylethyl}-4-(pentafluorothio)benzamide] | 10 µM | active | 
CC(C#N)(NC(=O)c1ccc(S(F)(F)(F)(F)F)cc1)C1Cc2cc(C#N)cc(Cl)c2O1 (stereo not drawn) [test compound 80, N-[1-(7-chloro-5-cyano-2,3-dihydro-1-benzofuran-2-yl)-1-cyanoethyl]-4-(pentafluorothio)benzamide] | 3.3 µM | active | 
CO[C@H]1C[C@H](O[C@@H]2/C(C)=C/C[C@@H]3C[C@@H](C[C@]4(CC[C@H](C)[C@@H](C5CCCCC5)O4)O3)OC(=O)[C@@H]3C=C(C)/C(=N/O)[C@H]4OC/C(=C\C=C\[C@@H]2C)[C@]43O)O[C@@H](C)[C@@H]1O [Selamectin, reference compound] |  |  | active
Cc1ccc(C#N)cc1OCC(C)(C#N)NC(=O)c1ccc(S(F)(F)(F)(F)F)cc1 (stereo not drawn) [test compound 43, N-[1-cyano-2-(5-cyano-2-methylphenoxy)-1-methylethyl]-4-(pentafluorothio)benzamide] | 10 µM | active | 
C[C@](C#N)(COc1ccc(C#N)cc1C(F)(F)F)NC(=O)c1ccc(S(F)(F)(F)(F)F)cc1 [test compound 51a] | 10 µM | active | 
CO/N=C1\C[C@]2(C[C@@H]3C[C@@H](C/C=C(\C)C[C@@H](C)/C=C/C=C4\CO[C@@H]5[C@H](O)C(C)=C[C@@H](C(=O)O3)[C@]45O)O2)O[C@H](/C(C)=C/C(C)C)[C@H]1C [moxidectin, reference compound] |  | active | 
CC(C#N)(COc1ccc(Cl)cc1C#N)NC(=O)c1ccc(S(F)(F)(F)(F)F)cc1 (stereo not drawn) [test compound 11, N-[2-(4-chloro-2-cyanophenoxy)-1-cyano-1-methylethyl]-4-(pentafluorothio)-benzamide] |  | active | 
CC(C#N)(COc1ccc(I)cc1)NC(=O)c1ccc(S(F)(F)(F)(F)F)cc1 (stereo not drawn) [test compound 13, N-[1-cyano-2-(4-iodophenoxy)-1-methylethyl]-4-(pentafluorothio)benzamide] |  | active | 
CC(C#N)(COc1ccc(Cl)cc1)NC(=O)c1ccc(S(F)(F)(F)(F)F)cc1 (stereo not drawn) [test compound 10, N-[2-(4-chlorophenoxy)-1-cyano-1-methylethyl]-4-(pentafluorothio)benzamide] |  | active | 
CC(C#N)(COc1ccc(C#N)cc1C(F)(F)F)NC(=O)c1ccc(S(F)(F)(F)(F)F)cc1 (stereo not drawn) [test compound 7, N-{1-cyano-2-[4-cyano-2-(trifluoromethyl)phenoxy]-1-methylethyl}-4-(pentafluorothio)benzamide] |  | active | 
